One data set concerns zebrafish embryos. Nature of the data set: Zebrafish behavioral assay (light-dependent motor excitation, excitation score). The format is in vivo. As to the method: To identify small molecules for the optical control of endogenous channels, a screen was conducted for compounds that could drive light-dependent motor behaviors in wild-type zebrafish. Zebrafish embryos are particularly well suited for phenotype based chemical screens^28,29. They are blind for the first 3 days of development and other than a one-time motor response to the first light exposure in dark-adapted animals (the photomotor response, PMR), zebrafish embryos are unresponsive to light^31,30 (FIG. 1A). A library of 10,000 structurally diverse synthetic small molecules was screened for compounds that render zebrafish embryos responsive to light. Behavioral responses were measured for each well in comparison to a set of 2,500 DMSO treated controls. This screen identified a single compound, optovin, that increased motor activity greater than 40 standard deviations above the control mean (FIGS. 1A-1C).
A large number of fertilized eggs (up to 5,000 embryos per day) were collected from group mating of Ekkwill or TuAB zebrafish. Embryos were raised in HEPES (10 mM) buffered E3 media in a dark incubator at 28° C. until […]. Groups of ˜8 embryos (28 hpf) were distributed into the wells of flat bottom black-walled 96 well plates filled with E3 media (360 μl). Embryos were then incubated in a dark incubator 25° C. for chemical treatment and subsequent experiments.
The Tim Tec ACTIPROBEβ library contains 10,000 compounds dissolved in DMSO at a stock concentration of 1 mg/ml (˜3 mM). The Tim Tec library was screened at a 1:300 dilution in E3 buffer for a final concentration of ˜10 μM. Negative controls were treated with an equal volume of DMSO. Stock solutions were added directly to zebrafish in the wells of a 96 well plate, mixed, and allowed to incubate for 2-10 hours in the dark prior to behavioral evaluation in the PMR assay. The Tim Tec library (10,000 compounds) was purchased from the Tim Tec corporation (Newark, Del.). The Neurotransmitter Library (700 compounds; cat #2810) was purchased from Biomol International. Reordered hit compounds were dissolved in DMSO and added to wells as described above.
Animals were exposed to a two pulse stimulus train with a 10 s inter-stimulus interval. Exposure to the first pulse was used to trigger the photomotor response, which has a refractory phase of approximately 10 minutes. […] In a typical assay, 1000 frames of digital video were recorded at 33 fps using a Hamamatsu ORCA-ER camera mounted on a Nikon TE200 microscope with a 1× objective. Instrument control and data measurement were performed using custom scripts for Metamorph Software (Molecular Devices). Each video was saved for review. Light stimuli were generated with a 300-watt xenon bulb housed in a Sutter Lambda LS illuminator and delivered to the well 10 s and 20 s after the start of each video. A cold mirror (reflectance between 300 nm and 700 nm) on the Sutter illuminator was used to block wavelengths outside of this range. Light intensity was measured using a PM100D power meter attached to a S120VC photodiode power sensor (Thorlabs). Where indicated, filters were used to restrict the excitation light to the indicated wavelengths.
To analyze digital video recordings, custom software scripts were used to automatically draw six evenly spaced line segments across each well such that each embryo is likely to be crossed by one of the lines. The software then tracks the average intensity of the pixels for each segment over time. As the embryos move, the light intensity at some of the pixels changes. The motion index was calculated by taking the total absolute difference in pixel intensity between frames. This motion index correlates with the overall amount of motion in the well, both in terms of contraction frequency and number of animals in motion. Behavioral features are quantified by ‘excitation scores’ that are calculated by taking the 75th percentile of the motion index for 3-5 s following the light stimulus. […]

Data set [1] in a line: Crossing of the epidermis after topical application. The note with it: humans as well as zebrafish. The format is in vivo, human. The source says:
As described herein, photo-sensitive TrpA1 agonists can be bioavailable. […] In some embodiments, a photo-sensitive TrpA1 agonist can be bioavailable when administered systemically. […] In some embodiments, oral administration of a photo-sensitive TrpA1 agonist can be considered for any method described herein.
Photo-sensitive TrpA1 agonists described herein can be administered by any delivery method known in the art, including but not limited to, injection; parenteral, intravenous, intramuscular, subcutaneous, transdermal, airway (aerosol), pulmonary, direct application, microsurgery, endoscopic surgery, topically, orally, vaginally and/or by contact with the gastro-intestinal lumen. […] This would agonist to all, or at least a variety of tissues, depending e.g. upon design/modification of the agonist to limit or expand systemic bioavailability such that electromagnetic radiation applied to any desired location would be expected to activate neuronal activity at the site of irradiation. In some embodiments, the photo-sensitive TrpA1 agonist can be administered systemically. In some embodiments, the photo-sensitive TrpA1 agonist can be administered locally.

Data set [2] is described as follows: UV-Vis absorbance spectrum. The format is physicochemical. The source says: How might optovin activate TRPA1? When molecules absorb light, photons can excite electrons from their ground state to a […] via intersystem crossing^37. These photoactivated compounds can then undergo reactions by transferring energy or electrons to target molecules, including aqueous molecular oxygen. Optovin is a yellow-colored compound with peak absorbance at 415 nm (FIG. 4A). To determine if optovin is photochemically reactive, it was exposed to increasing intensities of 415 nm light and assayed for reactive oxygen species (ROS) generation.
Assay for singlet oxygen generation using singlet oxygen sensor green (SOSG) UV-vis absorption spectra were recorded at 20 uM in methanol using an Evolution 300 UV-Vis Spectrophotometer (Thermo Fisher Scientific Inc., Waltham, Mass.). 96-well black-sided plates were used for fluorescent probe experiments. […] An Omnilux Clear-U LED light source (Photo Therapeutics Inc), Carlsbad, Calif.) that emits blue light 415-nm+15-nm as a homogeneous spot with an irradiance of 50 mW/cm^2 measured with a power meter (model DMM 199 with 201 standard head; Coherent, Santa Clara, Calif.) that covers an area of one half of a 96-well plate.

`Cc1cc(/C=C2/SC(=S)NC2=O)c(C)n1-c1cccnc1` [optovin]: the “light-dependent motor excitation in vivo” value with zebrafish embryos (10 μM, n=3, FIG. 4H) is recorded as “cause light-dependent motor excitation”. The “behavioral excitation (activity of optovin analogs)” value with zebrafish embryos (10 μM, n=5, FIG. 2A) is recorded as “active”. The “response to stimulus wavelengths” value in the data set on zebrafish embryos (387, 485, 560 nm or longer) is recorded as “respond to 387 nm (violet) stimuli, but not to 485 nm (blue), 560 nm (green) or longer wavelengths”. In the data set on zebrafish embryos (Danio rerio, dose response, n=5, read-out: EC50 of light-induced motor excitation (behavioral excitation score)), the EC50 came out at 2000 nM. In addition, the “behavioral excitation by singlet oxygen generating photosensitizers” value with zebrafish embryos (FIG. 4F) is “only optovin causes behavioral excitation”. For the same compound, the “response to 387 nm light stimulus” value in the data set with zebrafish embryos (TrpA1b homozygous mutant animals) was “failed to respond”. The same compound had a latency of movement with zebrafish embryos (depending on developmental stage) of 100 to 300 ms. The “relation of stimulus and response duration” value in the data set with zebrafish embryos (radiation stimuli lasting between 5 and 20 seconds) is “stimulus and response duration are proportional”. Moreover, the “increase in motor activity above the control mean (Z-score)” value in the data set on zebrafish embryos (screen at ~10 μM, light stimulus, vs DMSO treated controls) is listed as “greater than 40 standard deviations”. Also, in the data set on zebrafish embryos (trunks transected posterior to the hindbrain), the “light response of spinalized preparations” value is on record as “respond to light”. In addition, in the data set with zebrafish embryos (wild-type, TrpA1a heterozygous and TrpA1a homozygous mutant animals), the “response to 387 nm light stimulus” value is given as “respond to the 387 nm light stimulus with the typical prolonged motor excitation”. In the data set with zebrafish embryos (zebrafish, in vivo), the “Off rate (time between end of light stimulus and return to rest)” value came to 2 s; the “On rate (latency between start of light stimulus and start of embryo movement)” value is -150 ms; the lowest effective dose stood at 3 µM; the “radiation stimulus intensity eliciting motor behavior” value was “greater than 1.6 μW/mm^2”. In the data set on zebrafish embryos (zebrafish, in vivo), the “response to repeated light pulses” value is “multiple responses can be triggered with repeated light pulses”. Besides, the “crossing the epidermis to reach underlying muscles at an effective concentration” value in data set [1] was “able to cross the epidermis”. Further, the peak absorbance in data set [2] worked out at 415 nm.

As usually defined, the EC50 is the concentration that produces a half-maximal response.

The record behind these values is patent US9486447B2, “Compositions and methods for controlling neuronal excitation” (The General Hospital Corporation, priority 2011, dated 2016).
